15 compounds from US9725459B2, “3-oxo-tetrahydro-furo[3,2-B]pyrrol-4(5H)-yl) derivatives I” (GRÜNENTHAL GMBH, priority 2014, dated 2017) can be followed below.

Holding throughout (assay type): biochemical
One experiment deals with human cathepsin S (CatS) (Homo sapiens (Human), UniProt P25774). Description: CatS functional enzyme assay. Particulars: for Selectivity Ki(hCatS)/Ki(hCatK): ratio Ki(hCatS)/Ki(hCatK); for Ki: recombinant human CatS, substrate Z-VVR-AMC 5 μM, pH 6.5, Ki by Cheng Prusoff equation, read-out: hCatS, Ki. On the procedure: Reference and test compounds were assayed for inhibitory potency (IC50) against human cathepsins using the following assay setups: Recombinant human cathepsins (CatS, CatK, CatL) were purchased from a Enzo Life Sciences. […] For CatS, the enzyme (0.0007 mU/well) was incubated with fluorogeninc substrate (Z-VVR-AMC, 5 μM) at RT for 10 min. For CatK the enzyme (0.00175 mU/well) was incubated with fluorogeninc substrate (Z-FR-AMC, 40 μM) at RT for 10 min. For CatL, the enzyme (0.000874 mU/well) was incubated with fluorogeninc substrate (Z-VVR-AMC, 40 μM) at RT for 10 min. Flourogenic substrate turnover was detected using a microplate reader (Synergy™ H4, BioTek). Ki values were calculated using the Cheng Prusoff equation (Cheng & Prosoff 1973).

The target in a further experiment is human cathepsin K (CatK) (Homo sapiens (Human), UniProt P43235). The experiment is described as follows: CatK functional enzyme assay. Particulars: recombinant human CatK, substrate Z-FR-AMC 40 μM, pH 5.5; Ki by Cheng Prusoff equation; read-out: hCatK, Ki. On the procedure: (§1) Reference and test compounds were assayed for inhibitory potency (IC50) against human cathepsins using the following assay setups:
(§2) Recombinant human cathepsins (CatS, CatK, CatL) were purchased from a Enzo Life Sciences. All assays were carried out in 96-well format using a buffer of 50 mM KH2PO4, 50 mM NaCl, 2 mM EDTA, 0.5 mM DTT and 1% Triton-X-100, pH 6.5 for Cathepsin S and a buffer of 50 mM NaOAc, 10 mM EDTA, 1 mM DTT and 0.01% Triton-X-100, pH 5.5 for CatK/L/B. For CatS, the enzyme (0.0007 mU/well) was incubated with fluorogeninc substrate (Z-VVR-AMC, 5 μM) at RT for 10 min. For CatK the enzyme (0.00175 mU/well) was incubated with fluorogeninc substrate (Z-FR-AMC, 40 μM) at RT for 10 min. For CatL, the enzyme (0.000874 mU/well) was incubated with fluorogeninc substrate (Z-VVR-AMC, 40 μM) at RT for 10 min. Flourogenic substrate turnover was detected using a microplate reader (Synergy™ H4, BioTek). Ki values were calculated using the Cheng Prusoff equation (Cheng & Prosoff 1973).

In a further experiment the target is human cathepsin L (CatL) (Homo sapiens (Human), UniProt P07711). Description: CatL functional enzyme assay. Particulars: read-out: hCatL, inhibition [%] at 31.6 μM. On the procedure: as §1, §2

The structures appear in SMILES notation.

Sequence of human cathepsin S (CatS) (P25774 115-331): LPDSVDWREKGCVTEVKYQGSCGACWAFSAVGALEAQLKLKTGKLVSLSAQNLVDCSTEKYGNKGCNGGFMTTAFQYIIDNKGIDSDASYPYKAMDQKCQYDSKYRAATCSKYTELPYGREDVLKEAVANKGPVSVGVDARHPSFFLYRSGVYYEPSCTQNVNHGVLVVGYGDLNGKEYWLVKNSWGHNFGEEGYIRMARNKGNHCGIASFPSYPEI
Sequence of human cathepsin L (CatL) (P07711 114-333): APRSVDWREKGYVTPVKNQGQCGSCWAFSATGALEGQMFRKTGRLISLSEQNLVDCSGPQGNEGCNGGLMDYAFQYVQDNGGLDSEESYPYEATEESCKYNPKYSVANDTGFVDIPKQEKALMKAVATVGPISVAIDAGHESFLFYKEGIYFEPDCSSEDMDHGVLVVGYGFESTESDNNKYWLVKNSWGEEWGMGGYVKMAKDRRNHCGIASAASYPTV
Sequence of human cathepsin K (CatK) (P43235 115-329): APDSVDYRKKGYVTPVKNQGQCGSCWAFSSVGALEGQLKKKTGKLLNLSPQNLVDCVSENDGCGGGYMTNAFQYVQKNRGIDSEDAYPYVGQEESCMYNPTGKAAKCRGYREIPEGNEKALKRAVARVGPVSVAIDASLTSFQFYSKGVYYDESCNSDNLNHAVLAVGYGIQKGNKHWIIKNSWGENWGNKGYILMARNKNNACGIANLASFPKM

Usually Ki stands for a measure of affinity in units of concentration, obtained from inhibition or displacement. In general, inhibition refers to the percentage by which the read-out fell short of the control. For `O=C(N[C@H](C(=O)N1C[C@H](Cl)[C@H]2OCC(=O)[C@H]21)C1CCCCC1)c1ccc(-c2cccnn2)o1` [Example 20, N-((S)-2-((3aS,6S,6aS)-6-chloro-3-oxotetrahydro-2H-furo[3,2-b]pyrrol-4(5H)-yl)-1-cyclohexyl-2-oxoethyl)-5-(pyridazin-3-yl)furan-2-carboxamide], the “Selectivity Ki(hCatS)/Ki(hCatK)” value on human cathepsin S (CatS) amounted to 3.2. For the same compound, the results for the Ki at human cathepsin S (CatS) and on human cathepsin K (CatK) were 727 nM and 225 nM, respectively. Moreover, the inhibition at 31.6 µM on human cathepsin L (CatL) is 16%.
Turning to `Cc1ncccc1-c1ccc(C(=O)N[C@H](C(=O)N2C[C@H](Cl)[C@H]3OCC(=O)[C@H]32)C2CCCCC2)s1` [Example 83, N-((S)-2-((3aS,6S,6aS)-6-chloro-3-oxotetrahydro-2H-furo[3,2-b]pyrrol-4(5H)-yl)-1-cyclohexyl-2-oxoethyl)-5-(2-methylpyridin-3-yl)thiophene-2-carboxamide], the “Selectivity Ki(hCatS)/Ki(hCatK)” value on human cathepsin S (CatS) is on record as 44.0. Also, the Ki is 296 nM at human cathepsin S (CatS) and 7 nM at human cathepsin K (CatK). Also, on human cathepsin L (CatL), the inhibition at 31.6 µM was determined as 1%.
In the case of `O=C(N[C@H](C(=O)N1C[C@H](Cl)[C@H]2OCC(=O)[C@H]21)C1CCCCC1)c1ncc(-c2cccnn2)s1` [Example 15, N-((S)-2-((3aS,6S,6aS)-6-chloro-3-oxotetrahydro-2H-furo[3,2-b]pyrrol-4(5H)-yl)-1-cyclohexyl-2-oxoethyl)-5-(pyridazin-3-yl)thiazole-2-carboxamide], the “Selectivity Ki(hCatS)/Ki(hCatK)” value at human cathepsin S (CatS) is on record as 7.7. For the same compound, the Ki stood at 193 nM on human cathepsin S (CatS) and 25 nM on human cathepsin K (CatK). For the same compound, on human cathepsin L (CatL), the inhibition at 31.6 µM was found to be 12%.
For `C[S+]([O-])c1cnnc(-c2ccc(C(=O)N[C@H](C(=O)N3C[C@H](Cl)[C@H]4OCC(=O)[C@H]43)C3CCCCC3)s2)c1` (stereo partly drawn) [Example 76, N-((S)-2-((3aS,6S,6aS)-6-chloro-3-oxotetrahydro-2H-furo[3,2-b]pyrrol-4(5H)-yl)-1-cyclohexyl-2-oxoethyl)-5-(5-(methylsulfinyl)pyridazin-3-yl)thiophene-2-carboxamide], in that order: 1.0, 29 nM, 30 nM and 19%.
For `O=C(N[C@H](C(=O)N1C[C@H](Cl)[C@H]2OCC(=O)[C@H]21)C1CCCCC1)c1ncc(-c2ccc(Cl)nc2)s1` [Example 52, N-((S)-2-((3aS,6S,6aS)-6-chloro-3-oxotetrahydro-2H-furo[3,2-b]pyrrol-4(5H)-yl)-1-cyclohexyl-2-oxoethyl)-5-(6-chloropyridin-3-yl)thiazole-2-carboxamide], in that order: 14.5, 203 nM, 14 nM and 7%.
Consider `O=C(N[C@H](C(=O)N1C[C@H](Cl)[C@H]2OCC(=O)[C@H]21)C1CCCCC1)c1sc(-c2cncnc2)cc1F` [Example 53, N-((S)-2-((3aS,6S,6aS)-6-chloro-3-oxotetrahydro-2H-furo[3,2-b]pyrrol-4(5H)-yl)-1-cyclohexyl-2-oxoethyl)-3-fluoro-5-(pyrimidin-5-yl)thiophene-2-carboxamide], for which, on human cathepsin S (CatS), the “Selectivity Ki(hCatS)/Ki(hCatK)” value came to 8.9 and the Ki is 302 nM. The Ki at human cathepsin K (CatK) worked out at 34 nM. Besides, the inhibition at 31.6 µM at human cathepsin L (CatL) was found to be 40%.
For `O=C(N[C@H](C(=O)N1C[C@H](Cl)[C@H]2OCC(=O)[C@H]21)C1CCCCC1)c1sc(-c2cccnc2)cc1F` [Example 65, N-((S)-2-((3aS,6S,6aS)-6-chloro-3-oxotetrahydro-2H-furo[3,2-b]pyrrol-4(5H)-yl)-1-cyclohexyl-2-oxoethyl)-3-fluoro-5-(pyridin-3-yl)thiophene-2-carboxamide], in that order: 1.2, 646 nM, 551 nM and 5%.
The matching figures for `O=C(N[C@H](C(=O)N1C[C@H](Cl)[C@H]2OCC(=O)[C@H]21)C1CCCCC1)c1ncc(-c2cnccn2)s1` [Example 48, N-((S)-2-((3aS,6S,6aS)-6-chloro-3-oxotetrahydro-2H-furo[3,2-b]pyrrol-4(5H)-yl)-1-cyclohexyl-2-oxoethyl)-5-(pyrazin-2-yl)thiazole-2-carboxamide]: 17.3, 242 nM, 14 nM and 7%.
In the case of `O=C(N[C@H](C(=O)N1C[C@H](Cl)[C@H]2OCC(=O)[C@H]21)C1CCCCC1)c1ncc(-c2cncnc2)s1` [Example 24, N-((S)-2-((3aS,6S,6aS)-6-chloro-3-oxotetrahydro-2H-furo[3,2-b]pyrrol-4(5H)-yl)-1-cyclohexyl-2-oxoethyl)-5-(pyrimidin-5-yl)thiazole-2-carboxamide], at human cathepsin S (CatS), the “Selectivity Ki(hCatS)/Ki(hCatK)” value turned out to be 2.8 and the Ki was 61 nM. At human cathepsin K (CatK), the Ki is 22 nM. Besides, the inhibition at 31.6 µM at human cathepsin L (CatL) was determined as 10%.
As to `CCc1cc(-c2ccc(C(=O)N[C@H](C(=O)N3C[C@H](Cl)[C@H]4OCC(=O)[C@H]43)C3CCCCC3)s2)ccn1` [Example 86, N-((S)-2-((3aS,6S,6aS)-6-chloro-3-oxotetrahydro-2H-furo[3,2-b]pyrrol-4(5H)-yl)-1-cyclohexyl-2-oxoethyl)-5-(2-ethylpyridin-4-yl)thiophene-2-carboxamide], at human cathepsin S (CatS), the “Selectivity Ki(hCatS)/Ki(hCatK)” value is 16.7 and the Ki came out at 24 nM. The Ki on human cathepsin K (CatK) was 1 nM. Moreover, the inhibition at 31.6 µM on human cathepsin L (CatL) worked out at 25%.
For `O=C(N[C@H](C(=O)N1C[C@H](Cl)[C@H]2OCC(=O)[C@H]21)C1CCCCC1)c1ccc(-c2ccc(Cl)nc2)s1` [Example 17, N-((S)-2-((3aS,6S,6aS)-6-chloro-3-oxotetrahydro-2H-furo[3,2-b]pyrrol-4(5H)-yl)-1-cyclohexyl-2-oxoethyl)-5-(6-chloropyridin-3-yl)thiophene-2-carboxamide], on human cathepsin S (CatS), the “Selectivity Ki(hCatS)/Ki(hCatK)” value came out at 21.7 and the Ki is 347 nM. Besides, the inhibition constant (Ki) on human cathepsin K (CatK) stood at 16 nM. In addition, the inhibition at 31.6 µM at human cathepsin L (CatL) was found to be 9%.
For `O=C(N[C@H](C(=O)N1C[C@H](Cl)[C@H]2OCC(=O)[C@H]21)C1CCCCC1)c1ncc(-c2ccc(C(F)(F)F)nc2)s1` [Example 68, N-((S)-2-((3aS,6S,6aS)-6-chloro-3-oxotetrahydro-2H-furo[3,2-b]pyrrol-4(5H)-yl)-1-cyclohexyl-2-oxoethyl)-5-(6-(trifluoromethyl)pyridin-3-yl)thiazole-2-carboxamide], on human cathepsin S (CatS), the “Selectivity Ki(hCatS)/Ki(hCatK)” value turned out to be 5.9 and the Ki turned out to be 383 nM. The Ki at human cathepsin K (CatK) is 65 nM. On human cathepsin L (CatL), the inhibition at 31.6 µM stood at 5%.
With `O=C(N[C@H](C(=O)N1C[C@H](Cl)[C@H]2OCC(=O)[C@H]21)C1CCCCC1)c1ccc(-c2cnnc(O)c2)s1` [Example 80, N-((S)-2-((3aS,6S,6aS)-6-chloro-3-oxotetrahydro-2H-furo[3,2-b]pyrrol-4(5H)-yl)-1-cyclohexyl-2-oxoethyl)-5-(6-hydroxypyridazin-4-yl)thiophene-2-carboxamide], on human cathepsin S (CatS), the “Selectivity Ki(hCatS)/Ki(hCatK)” value was found to be 2.6 and the Ki was determined as 42 nM. Besides, the Ki at human cathepsin K (CatK) is 16 nM. In addition, the inhibition at 31.6 µM on human cathepsin L (CatL) worked out at 30%.
For `O=C(N[C@H](C(=O)N1C[C@H](Cl)[C@H]2OCC(=O)[C@H]21)C1CCCCC1)c1ccc(-c2ccc[n+]([O-])n2)s1` [Example 79, 3-(5-(((S)-2-((3aS,6S,6aS)-6-chloro-3-oxotetrahydro-2H-furo[3,2-b]pyrrol-4(5H)-yl)-1-cyclohexyl-2-oxoethyl)carbamoyl)thiophen-2-yl)pyridazine 1-oxide], in that order: 2.7, 56 nM, 21 nM and 25%.
For `O=C(N[C@H](C(=O)N1C[C@H](Cl)[C@H]2OCC(=O)[C@H]21)C1CCCCC1)c1ccc(-c2ncccn2)s1` [Example 9, N-((S)-2-((3aS,6S,6aS)-6-chloro-3-oxotetrahydro-2H-furo[3,2-b]pyrrol-4(5H)-yl)-1-cyclohexyl-2-oxoethyl)-5-(pyrimidin-2-yl)thiophene-2-carboxamide], in that order: 81.7, 1470 nM, 18 nM and 4%.
